The NIST ThermoML archive (doi:10.1007/s10765-011-0995-x)
Numbers after ± are expanded uncertainties.

How the values were obtained:
[1] = 101 kPa, Liquid; for speed of sound: Pulse-echo method
[2] = refractive index (Na D-line) (dimensionless); settings: 101.33 kPa, Liquid, Standard Abbe refractometry
[3] = refractive index (Na D-line) (dimensionless); xn = mol fraction of the nth substance listed; settings: 101 kPa, Liquid, Standard Abbe refractometry, x2 = 0
[4] = xn = mol fraction of the nth substance listed; settings: 101 kPa, Liquid, x2 = 0; for speed of sound: Pulse-echo method

CCCCCCCCCCO [decan-1-ol]
Settings | mass density, [1] [kg/m3] | refractive index, [2] | speed of sound, [1] [m/s] | viscosity, [1] [mPa·s]
298.15 K | 826.41 ± 0.43 | 1.4346 ± 0.0005 | 1380.1 ± 1.3 | 11.82 ± 0.11
303.15 K | 822.92 ± 0.44 | 1.4326 ± 0.0005 | 1364.9 ± 1.3 | 9.766 ± 0.095
308.15 K | 819.42 ± 0.44 | 1.4305 ± 0.0005 | 1346 ± 1.3 | 8.13 ± 0.081

CCCCCCCCCCO [decan-1-ol] + Cc1ccccc1Cl
Settings | mass density, [4] [kg/m3] | refractive index, [3] | speed of sound, [4] [m/s] | viscosity, [4] [mPa·s]
298.15 K | 826.41 ± 0.43 | 1.4346 ± 0.0005 | 1380.1 ± 1.3 | 11.82 ± 0.11
303.15 K | 822.92 ± 0.44 | 1.4326 ± 0.0005 | 1364.9 ± 1.3 | 9.766 ± 0.095
308.15 K | 819.42 ± 0.44 | 1.4305 ± 0.0005 | 1346 ± 1.3 | 8.13 ± 0.081

Cc1ccc(Cl)cc1 [4-chlorotoluene]
Settings | mass density, [1] [kg/m3] | refractive index, [2] | speed of sound, [1] [m/s] | viscosity, [1] [mPa·s]
298.15 K | 1065.11 ± 0.27 | 1.5188 ± 0.0005 | 1289.1 ± 1.2 | 0.828 ± 0.011
303.15 K | 1059.51 ± 0.26 | 1.5166 ± 0.0005 | 1271 ± 1.2 | 0.784 ± 0.011
308.15 K | 1053.9 ± 0.25 | 1.5138 ± 0.0005 | 1253.1 ± 1.2 | 0.73 ± 0.011

Cc1cccc(Cl)c1 [3-chlorotoluene]
Settings | mass density, [1] [kg/m3] | refractive index, [2] | speed of sound, [1] [m/s] | viscosity, [1] [mPa·s]
298.15 K | 1067.29 ± 0.29 | 1.5207 ± 0.0005 | 1298.3 ± 1.3 | 0.798 ± 0.011
303.15 K | 1062.81 ± 0.28 | 1.5189 ± 0.0005 | 1280.1 ± 1.3 | 0.746 ± 0.011
308.15 K | 1058.33 ± 0.27 | 1.5169 ± 0.0005 | 1262.1 ± 1.3 | 0.705 ± 0.01

Cc1ccccc1Cl [2-chlorotoluene]
Settings | mass density, [1] [kg/m3] | refractive index, [2] | speed of sound, [1] [m/s] | viscosity, [1] [mPa·s]
298.15 K | 1077.41 ± 0.3 | 1.5219 ± 0.0005 | 1301.2 ± 1.3 | 0.943 ± 0.013
303.15 K | 1072.83 ± 0.3 | 1.5189 ± 0.0005 | 1284.1 ± 1.3 | 0.885 ± 0.012
308.15 K | 1068.24 ± 0.29 | 1.5169 ± 0.0005 | 1266.1 ± 1.3 | 0.805 ± 0.011

CCCCCCCCCCO [decan-1-ol] + Cc1ccc(Cl)cc1
Settings | mass density, [4] [kg/m3] | refractive index, [3] | speed of sound, [4] [m/s] | viscosity, [4] [mPa·s]
298.15 K | 826.41 ± 0.43 | 1.4346 ± 0.0005 | 1380.1 ± 1.3 | 11.82 ± 0.11
303.15 K | 822.92 ± 0.44 | 1.4326 ± 0.0005 | 1364.9 ± 1.3 | 9.766 ± 0.095
308.15 K | 819.42 ± 0.44 | 1.4305 ± 0.0005 | 1346 ± 1.3 | 8.13 ± 0.081

CCCCCCCCCCO [decan-1-ol] + Cc1cccc(Cl)c1
Settings | mass density, [4] [kg/m3] | refractive index, [3] | speed of sound, [4] [m/s] | viscosity, [4] [mPa·s]
298.15 K | 826.41 ± 0.43 | 1.4346 ± 0.0005 | 1380.1 ± 1.3 | 11.82 ± 0.11
303.15 K | 822.92 ± 0.44 | 1.4326 ± 0.0005 | 1364.9 ± 1.3 | 9.766 ± 0.095
308.15 K | 819.42 ± 0.44 | 1.4305 ± 0.0005 | 1346 ± 1.3 | 8.13 ± 0.081
